The record followed here is the NIST ThermoML archive (doi:10.1016/j.fluid.2014.07.011).

Molecules are shown by their SMILES. ± gives the expanded uncertainty stated by the source.

A short description of this data set: Boiling temperature at pressure P. The note with it: 101 kPa; Liquid; Ebulliometric method (Recirculating still).
For `O=Cc1ccco1` [2-furaldehyde], the “Boiling temperature at pressure P” value was found to be 162 ± 1.6 °C.
For `CC(=O)CC(C)C` [4-methylpentan-2-one] the value was 117.4 ± 1.6 °C.
With `OC1CCCC1` [cyclopentanol], the “Boiling temperature at pressure P” value was found to be 139.4 ± 1.6 °C.
In the case of `CCOC(C)=O` [ethyl acetate], the “Boiling temperature at pressure P” value is 77.1 ± 1.6 °C.
